Test results: the NIST ThermoML archive (doi:10.1016/j.jct.2013.08.021)

Columns and labels:
[1] = refractive index (Na D-line) (dimensionless); xn = mol fraction of the nth substance listed; conditions: 101 kPa, Liquid, Standard Abbe refractometry
[2] = xn = mol fraction of the nth substance listed; conditions: 101 kPa, Liquid; for speed of sound: Sing-around technique in a fixed-path interferometer; for mass density: Vibrating tube method

CCC[N+]1(C)CCCC1.O=S(=O)([N-]S(=O)(=O)C(F)(F)F)C(F)(F)F + CCO
Conditions	mass density, 298.15 K [kg/m3]	mass density, 303.15 K [kg/m3]	mass density, 308.15 K [kg/m3]	refractive index, 298.15 K	refractive index, 303.15 K	refractive index, 308.15 K	speed of sound, 298.15 K [m/s]	speed of sound, 303.15 K [m/s]	speed of sound, 308.15 K [m/s]
[1], x2 = 0	–	–	–	1.42064	1.41926	1.41782	–	–	–
[1], x2 = 0.016	–	–	–	1.42045	1.41907	1.41766	–	–	–
[1], x2 = 0.0703	–	–	–	1.41973	1.41834	1.4169	–	–	–
[1], x2 = 0.0986	–	–	–	1.41935	1.41789	1.41649	–	–	–
[1], x2 = 0.2816	–	–	–	1.41621	1.41485	1.41339	–	–	–
[1], x2 = 0.4082	–	–	–	1.41338	1.412	1.41052	–	–	–
[1], x2 = 0.5143	–	–	–	1.41021	1.40877	1.40732	–	–	–
[1], x2 = 0.6077	–	–	–	1.40661	1.40521	1.40398	–	–	–
[1], x2 = 0.7059	–	–	–	1.40144	1.39995	1.39878	–	–	–
[1], x2 = 0.8034	–	–	–	1.39395	1.39236	1.39104	–	–	–
[1], x2 = 0.9002	–	–	–	1.38228	1.38064	1.37888	–	–	–
[1], x2 = 0.9468	–	–	–	1.37383	1.372	1.37027	–	–	–
[2], x2 = 0	1427.86	1423.26	1418.83	–	–	–	1270.6	1259.5	1248.6
[2], x2 = 0.016	1425.68	1421.16	1416.65	–	–	–	1269.2	1258.2	1247.2
[2], x2 = 0.0703	1418.06	1413.56	1409.05	–	–	–	1266.3	1255.2	1244.3
[2], x2 = 0.0986	1413.89	1409.36	1404.83	–	–	–	1264.6	1253	1242.6
[2], x2 = 0.2816	1380.66	1376.07	1371.48	–	–	–	1252.4	1241.1	1229.9
[2], x2 = 0.4082	1349.44	1344.8	1340.16	–	–	–	1241	1229.5	1218.2
[2], x2 = 0.5143	1315.09	1310.32	1305.65	–	–	–	1228.8	1217.2	1205.7
[2], x2 = 0.6077	1275.55	1270.84	1266.14	–	–	–	1215.8	1203.9	1192.1
[2], x2 = 0.7059	1219.23	1214.5	1209.77	–	–	–	1198.4	1186.2	1174
[2], x2 = 0.8034	1138.92	1134.21	1129.48	–	–	–	1177.6	1164.7	1151.9
[2], x2 = 0.9002	1015	1010.37	1005.72	–	–	–	1155	1140.9	1127
[2], x2 = 0.9468	927.02	922.49	917.93	–	–	–	1146.8	1131.8	1117

CCC[N+]1(C)CCCC1.O=S(=O)([N-]S(=O)(=O)C(F)(F)F)C(F)(F)F + CO
Conditions	mass density, 298.15 K [kg/m3]	mass density, 303.15 K [kg/m3]	mass density, 308.15 K [kg/m3]	refractive index, 298.15 K	refractive index, 303.15 K	refractive index, 308.15 K	speed of sound, 298.15 K [m/s]	speed of sound, 303.15 K [m/s]	speed of sound, 308.15 K [m/s]
[1], x2 = 0	–	–	–	1.42064	1.41926	1.41782	–	–	–
[1], x2 = 0.0462	–	–	–	1.42002	1.41862	1.41719	–	–	–
[1], x2 = 0.0901	–	–	–	1.41937	1.41801	1.41659	–	–	–
[1], x2 = 0.1769	–	–	–	1.41794	1.41675	1.41551	–	–	–
[1], x2 = 0.2722	–	–	–	1.41609	1.41503	1.4136	–	–	–
[1], x2 = 0.3855	–	–	–	1.41327	1.41206	1.41063	–	–	–
[1], x2 = 0.568	–	–	–	1.40659	1.4055	1.404	–	–	–
[1], x2 = 0.685	–	–	–	1.39953	1.39832	1.39695	–	–	–
[1], x2 = 0.798	–	–	–	1.38838	1.38703	1.38569	–	–	–
[1], x2 = 0.8984	–	–	–	1.37031	1.36877	1.36712	–	–	–
[1], x2 = 0.9467	–	–	–	1.35498	1.35335	1.35185	–	–	–
[2], x2 = 0	1427.86	1423.26	1418.83	–	–	–	1270.6	1259.5	1248.6
[2], x2 = 0.0462	1423.37	1418.86	1414.35	–	–	–	1268.8	1257.7	1246.8
[2], x2 = 0.0901	1418.77	1414.23	1409.69	–	–	–	1266.9	1255.8	1244.9
[2], x2 = 0.1769	1408.88	1404.34	1399.8	–	–	–	1262.7	1251.6	1240.6
[2], x2 = 0.2722	1396.02	1391.43	1386.85	–	–	–	1257.1	1246	1234.9
[2], x2 = 0.3855	1376.42	1371.67	1367.04	–	–	–	1248.7	1237.4	1226.2
[2], x2 = 0.568	1329.02	1324.31	1319.61	–	–	–	1228.6	1217	1205.7
[2], x2 = 0.685	1279.72	1274.95	1270.18	–	–	–	1208.5	1196.8	1185.2
[2], x2 = 0.798	1201.72	1196.89	1192.05	–	–	–	1180.4	1168.2	1156.1
[2], x2 = 0.8984	1075.97	1071.1	1066.22	–	–	–	1144.6	1131.4	1118.3
[2], x2 = 0.9467	973.15	968.3	963.44	–	–	–	1124.5	1110.3	1096.2
